For 25 compounds, GI50 results are on record in US11753397B2, “Cereblon binders for the degradation of ikaros” (C4 Therapeutics, Inc., priority 2018, dated 2023).

Structures are written as SMILES.

In the assay the test system is NCIH929.1 cells. The experiment in a line: Cell viability assay (CellTiter-Glo 2.0, ATP quantification). Format: cell-based. As to conditions: NCIH929.1 cell viability, CellTiter-Glo 2.0, 96 hr incubation, top concentration 1 μM. In short, it runs like this: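 Cells seeded at 750/well in RPMI with 10% FBS and 0.05 mM 2-mercaptoethanol, exposed 96 h at 37 °C to 10-point half-log dilutions in duplicate, top 1 μM. Viability by CellTiter-Glo 2.0 ATP luminescence, with a day-0 read as cytostatic baseline (CT0).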
The term GI50 denotes the concentration giving 50% growth inhibition. A higher GI50 goes with less potent growth inhibition. Compound `O=C1CCC(N2C(=O)c3cccc(NCc4cnn(C5CCN(C(=O)C6(O)CCC6)CC5)c4)c3C2=O)C(=O)N1` (stereo not shown) [Compound 84, 2-(2,6-dioxopiperidin-3-yl)-4-(((1-(1-(1-hydroxycyclobutane-1-carbonyl)piperidin-4-yl)-1H-pyrazol-4-yl)methyl)amino)isoindoline-1,3-dione] had a GI50 below 100 nM.

`CC12CC(C(=O)N3CCC(n4cc(CNc5cccc6c5C(=O)N(C5CCC(=O)NC5=O)C6=O)cn4)CC3)(C1)C2` (stereo not shown) [Compound 85, 2-(2,6-dioxopiperidin-3-yl)-4-(((1-(1-(3-methylbicyclo[1.1.1]pentane-1-carbonyl)piperidin-4-yl)-1H-pyrazol-4-yl)methyl)amino)isoindoline-1,3-dione] came in with a GI50 below 100 nM. For `CCC1(C(=O)N2CCC(n3cc(CNc4cccc5c4C(=O)N(C4CCC(=O)NC4=O)C5=O)cn3)CC2)CCC1` (stereo not shown) [Compound 86, 2-(2,6-dioxopiperidin-3-yl)-4-(((1-(1-(1-ethylcyclobutane-1-carbonyl)piperidin-4-yl)-1H-pyrazol-4-yl)methyl)amino)isoindoline-1,3-dione] the value was below 100 nM; for `CC1(C(=O)N2CCC(n3cc(CNc4cccc5c4C(=O)N(C4CCC(=O)NC4=O)C5=O)cn3)CC2)CC1(Cl)Cl` (stereo not shown) [Compound 87, 4-(((1-(1-(2,2-dichloro-1-methylcyclopropane-1-carbonyl)piperidin-4-yl)-1H-pyrazol-4-yl)methyl)amino)-2-(2,6-dioxopiperidin-3-yl)isoindoline-1,3-dione], below 1 nM. Take `O=C1CCC(N2C(=O)c3cccc(NCc4cnn(C5CCN(C(=O)N6CCCCC6)CC5)c4)c3C2=O)C(=O)N1` (stereo not shown) [Compound 88, 2-(2,6-dioxopiperidin-3-yl)-4-(((1-(1-(piperidine-1-carbonyl)piperidin-4-yl)-1H-pyrazol-4-yl)methyl)amino)isoindoline-1,3-dione]: the 50% growth inhibitory concentration (GI50) was below 100 nM. In turn, `CC1(C)C(C(=O)N2CCC(n3cc(CNc4cccc5c4C(=O)N(C4CCC(=O)NC4=O)C5=O)cn3)CC2)C1(C)C` (stereo not shown) [Compound 89, 2-(2,6-dioxopiperidin-3-yl)-4-(((1-(1-(2,2,3,3,3-tetramethylcyclopropane-1-carbonyl)piperidin-4-yl)-1H-pyrazol-4-yl)methyl)amino)isoindoline-1,3-dione] had a GI50 below 1 nM. With `CC(C)(C)C(=O)N1CCC(n2cc(CNc3cccc4c3C(=O)N(C3CCC(=O)NC3=O)C4=O)cn2)CC1` (stereo not shown) [Compound 90, 2-(2,6-dioxopiperidin-3-yl)-4-(((1-(1-pivaloylpiperidin-4-yl)-1H-pyrazol-4-yl)methyl)amino)isoindoline-1,3-dione] the figure was below 1 nM. Regarding `O=C1CCC(N2C(=O)c3cccc(NCc4cnn(C5CCN(C(=O)C67CC(CO6)C7)CC5)c4)c3C2=O)C(=O)N1` (stereo not shown) [Compound 91, 4-(((1-(1-(2-oxabicyclo[2.1.1]hexane-1-carbonyl)piperidin-4-yl)-1H-pyrazol-4-yl)methyl)amino)-2-(2,6-dioxopiperidin-3-yl)isoindoline-1,3-dione], the GI50 was below 100 nM. For `O=C1CCC(N2C(=O)c3cccc(NCc4cnn(C5CCN(C(=O)C6(Cc7ccc(F)cc7)CC6)CC5)c4)c3C2=O)C(=O)N1` (stereo not shown) [Compound 92, 2-(2,6-dioxopiperidin-3-yl)-4-(((1-(1-(1-(4-fluorobenzyl)cyclopropane-1-carbonyl)piperidin-4-yl)-1H-pyrazol-4-yl)methyl)amino)isoindoline-1,3-dione] the value was below 100 nM; for `C#CC1(C(=O)N2CCC(n3cc(CNc4cccc5c4C(=O)N(C4CCC(=O)NC4=O)C5=O)cn3)CC2)CCC1` (stereo not shown) [Compound 93, 2-(2,6-dioxopiperidin-3-yl)-4-(((1-(1-(1-ethynylcyclobutane-1-carbonyl)piperidin-4-yl)-1H-pyrazol-4-yl)methyl)amino)isoindoline-1,3-dione], below 1 nM; for `O=C1CCC(N2C(=O)c3cccc(NCc4cnn(C5CCN(C(=O)C6(C7CC7)CCC6)CC5)c4)c3C2=O)C(=O)N1` (stereo not shown) [Compound 94, 4-(((1-(1-(1-cyclopropylcyclobutane-1-carbonyl)piperidin-4-yl)-1H-pyrazol-4-yl)methyl)amino)-2-(2,6-dioxopiperidin-3-yl)isoindoline-1,3-dione], below 1 nM. Turning to `O=C1CCC(N2C(=O)c3cccc(NCc4cnn(C5CCN(C(=O)C67C8C9C%10C8C6C%10C97)CC5)c4)c3C2=O)C(=O)N1` [Compound 95, 4-(((1-(1-((1s,4R,3R,4r,5r,6S,7S,8s)-cubane-1-carbonyl)piperidin-4-yl)-1H-pyrazol-4-yl)methyl)amino)-2-(2,6-dioxopiperidin-3-yl)isoindoline-1,3-dione], the GI50 was below 1 nM. For `O=C1CCC(N2C(=O)c3cccc(NCc4cnn(C5CCN(C(=O)C6(Cc7ccc(F)cc7)CCC6)CC5)c4)c3C2=O)C(=O)N1` (stereo not shown) [Compound 96, 2-(2,6-dioxopiperidin-3-yl)-4-(((1-(1-(1-(4-fluorobenzyl)cyclobutane-1-carbonyl)piperidin-4-yl)-1H-pyrazol-4-yl)methyl)amino)isoindoline-1,3-dione] the value was below 1 nM; for `O=C1CCC(N2C(=O)c3cccc(NCc4cnn(C5CCN(C(=O)C67CCC(C6)C7)CC5)c4)c3C2=O)C(=O)N1` (stereo not shown) [Compound 97, 4-(((1-(1-(bicyclo[2.1.1]hexane-1-carbonyl)piperidin-4-yl)-1H-pyrazol-4-yl)methyl)amino)-2-(2,6-dioxopiperidin-3-yl)isoindoline-1,3-dione], below 100 nM; for `O=C1CCC(N2C(=O)c3cccc(NCc4cnn(C5CCN(C(=O)C6C7(CC7)C67CC7)CC5)c4)c3C2=O)C(=O)N1` (stereo not shown) [Compound 98, 2-(2,6-dioxopiperidin-3-yl)-4-(((1-(1-(dispiro[2.0.24.13]heptane-7-carbonyl)piperidin-4-yl)-1H-pyrazol-4-yl)methyl)amino)isoindoline-1,3-dione], below 1 nM. `CC(=O)NCC1CCC(C(=O)N2CCC(n3cc(CNc4cccc5c4C(=O)N(C4CCC(=O)NC4=O)C5=O)cn3)CC2)CC1` (stereo not shown) [Compound 99, N-((4-(4-(4-(((2-(2,6-dioxopiperidin-3-yl)-1,3-dioxoisoindolin-4-yl)amino)methyl)-1H-pyrazol-1-yl)piperidine-1-carbonyl)cyclohexyl)methyl)acetamide] came in with a GI50 below 100 nM. For `O=C1CCC(N2C(=O)c3cccc(NCc4cnn(C5CCN(C(=O)C6CCN(c7ccccn7)CC6)CC5)c4)c3C2=O)C(=O)N1` (stereo not shown) [Compound 100, 2-(2,6-dioxopiperidin-3-yl)-4-(((1-(1-(1-(pyridin-2-yl)piperidine-4-carbonyl)piperidin-4-yl)-1H-pyrazol-4-yl)methyl)amino)isoindoline-1,3-dione] the value was below 1 nM. For `O=C1CCC(N2C(=O)c3cccc(NCc4cnn(C5CCN(C(=O)C6CCN(C(=O)c7ccccc7)CC6)CC5)c4)c3C2=O)C(=O)N1` (stereo not shown) [Compound 101, 4-(((1-(1-(1-benzoylpiperidine-4-carbonyl)piperidin-4-yl)-1H-pyrazol-4-yl)methyl)amino)-2-(2,6-dioxopiperidin-3-yl)isoindoline-1,3-dione] the value was below 100 nM.

Regarding `CC(C)(C)OC(=O)N1CCC(F)(C(=O)N2CCC(n3cc(CNc4cccc5c4C(=O)N(C4CCC(=O)NC4=O)C5=O)cn3)CC2)CC1` (stereo not shown) [Compound 102, tert-butyl 4-(4-(4-(((2-(2,6-dioxopiperidin-3-yl)-1,3-dioxoisoindolin-4-yl)amino)methyl)-1H-pyrazol-1-yl)piperidine-1-carbonyl)-4-fluoropiperidine-1-carboxylate], the 50% growth inhibitory concentration (GI50) was below 100 nM. As to `COc1ccc(-c2cc(C(=O)N3CCC(n4cc(CNc5cccc6c5C(=O)N(C5CCC(=O)NC5=O)C6=O)cn4)CC3)ccn2)cc1` (stereo not shown) [Compound 103, 2-(2,6-dioxopiperidin-3-yl)-4-(((1-(1-(2-(4-methoxyphenyl)isonicotinoyl)piperidin-4-yl)-1H-pyrazol-4-yl)methyl)amino)isoindoline-1,3-dione], the 50% growth inhibitory concentration (GI50) is below 100 nM. For `Cc1cccc2c(CC(=O)N3CCC(n4cc(CNc5cccc6c5C(=O)N(C5CCC(=O)NC5=O)C6=O)cn4)CC3)noc12` (stereo not shown) [Compound 104, 2-(2,6-dioxopiperidin-3-yl)-4-(((1-(1-(2-(7-methylbenzo[d]isoxazol-3-yl)acetyl)piperidin-4-yl)-1H-pyrazol-4-yl)methyl)amino)isoindoline-1,3-dione] the value was below 1 nM; for `Cc1oc(-c2cccc(F)c2)nc1CC(=O)N1CCC(n2cc(CNc3cccc4c3C(=O)N(C3CCC(=O)NC3=O)C4=O)cn2)CC1` (stereo not shown) [Compound 105, 2-(2,6-dioxopiperidin-3-yl)-4-(((1-(1-(2-(2-(3-fluorophenyl)-5-methyloxazol-4-yl)acetyl)piperidin-4-yl)-1H-pyrazol-4-yl)methyl)amino)isoindoline-1,3-dione], below 100 nM; for `O=C1CCC(N2C(=O)c3cccc(NCc4cnn(C5CCN(C(=O)Cc6ccc(-c7ccc(F)cc7)cc6)CC5)c4)c3C2=O)C(=O)N1` (stereo not shown) [Compound 106, 2-(2,6-dioxopiperidin-3-yl)-4-(((1-(1-(2-(4′-fluoro-[1,1′-biphenyl]-4-yl)acetyl)piperidin-4-yl)-1H-pyrazol-4-yl)methyl)amino)isoindoline-1,3-dione], below 100 nM. With `O=C1CCC(N2C(=O)c3cccc(NCc4cnn(C5CCN(C(=O)C6CCN(C(=O)C7CCCC7)CC6)CC5)c4)c3C2=O)C(=O)N1` (stereo not shown) [Compound 107, 4-(((1-(1-(1-(cyclopentanecarbonyl)piperidine-4-carbonyl)piperidin-4-yl)-1H-pyrazol-4-yl)methyl)amino)-2-(2,6-dioxopiperidin-3-yl)isoindoline-1,3-dione] the figure was below 100 nM; with `O=C1CCC(N2C(=O)c3cccc(NCc4cnn(C5CCN(C(=O)c6cccc(C#Cc7ccccc7)c6)CC5)c4)c3C2=O)C(=O)N1` (stereo not shown) [Compound 108, 2-(2,6-dioxopiperidin-3-yl)-4-(((1-(1-(3-(phenylethynyl)benzoyl)piperidin-4-yl)-1H-pyrazol-4-yl)methyl)amino)isoindoline-1,3-dione], below 100 nM.
